The target in this test is T1, gamma secretase (Homo sapiens, UniProt P49768).
T1 construct: HEK293 cells stably expressing full length Amyloid Precursor Protein (APP); endogenous in cells; host or cells: HEK 293 cells stably expressing full length APP
Put plainly: GSM cell-based assay: Aβ 42 inhibition or reduction in HEK 293 cells over-expressing APP (sandwich ELISA). The note with it: approximate IC50; HEK293 cells stably expressing full length APP, 24 hours incubation, 10-point dose response starting at 10 μM. The text has this:
GSM cell-based assays were designed to measure the modulation of Aβ 42 from HEK 293 cells over-expressing APP.
Three simultaneous cell-based assays, namely Aβ 42 inhibition or reduction, Aβ 40 inhibition or reduction and a measurement of cell viability of the cells from which the Aβ 42/40 readout was obtained, together gave an interpretation of gamma secretase modulation (GSM). The assays measure Aβ 42 and Ab 40 from conditioned medium of test compound treated HEK 293 cells.
HEK293 cells stably expressing full length Amyloid Precursor Protein (APP) were plated at a density of 100K cells/well in 96 well plates (Costar). The cells were cultivated for 6 hours at 37° C. and 5% CO2 in DMEM supplemented with 10% FBS. The test compounds were then added to cells in 10-point dose response concentrations with the starting concentration being 10 μM. The compounds were diluted from stock solutions in DMSO and the final DMSO concentration of the test compounds on cells was 0.1%. After 24 hours of incubation with the test compounds the supernatant conditioned media was collected and the Aβ 42, Aβ 40 levels were determined using a sandwich ELISA. A cell viability test (CellTiter-Blue Cell Viability assay, Promega) on the cells from which the conditioned medium was harvested for Aβ 42 or Aβ 40 readouts gave an indication of cell survivability as a possible reason for false positive Aβ 42 or 40 reduction or inhibition readout. The IC50 of the compound (for either Aβ 42 or Aβ 40) was calculated from the percent of control or percent inhibition of Aβ 42 or Aβ 40 as a function of the concentration of the test compound.
The sandwich ELISA to detect Aβ 42 or Aβ 40 was performed in 96 well microtiter plates, which were pre-treated with goat anti-rabbit IgG (Pierce). The capture and detecting antibody pair that were used to detect Aβ 42 and Aβ 40 from cell supernatants were rabbit monoclonal Antibody 42 (RabMAb 42) and affinity purified polyclonal Antibody 40 pAB40 (Biosource) as capture antibodies and biotinylated 6E10 (Signet Labs Inc.) as detection antibody. The optimal concentration for RabMAb 42 was 1 μg/ml in Superblock/TBS (Pierce) that was supplemented with 0.05% Tween 20 (Sigma). The optimal concentration for the pAb40 antibody was 3 μg/ml in Superblock/TBS (Pierce) that was supplemented with 0.05% Tween 20 (Sigma). Optimal concentration for the detection antibody 6E10-biotinylated was 0.5 μg/ml in Superblock/TBS (Pierce) that had been supplemented with 2% normal goat serum and 2% normal mouse serum.
Cellular supernatants were incubated with the capture antibody for 16-20 hours at 4° C., followed by 3 wash steps in TBS-tween (0.05%). The detecting antibody incubation was for 3 hours at 4° C., again followed by the wash steps as described previously. The final readout of the ELISA is Time-Resolved Fluorescence (counts per minute) using Delfia reagents Streptavidin-Europium and Enhancement solutions (Perkin Elmer) and the EnVision Multilabel plate reader (Perkin Elmer).
On the technique in general: An ELISA detects its analyte on a solid surface through an enzyme-linked reagent.
As usually defined, the IC50 is the point on the concentration scale where inhibition reaches its midpoint. A higher IC50 goes with weaker potency in that assay. As for `Cc1cc(-c2ccc(NC(=O)C(C)c3cccc(-c4ccc(S(C)(=O)=O)cc4)c3)cc2)ccn1` (stereo not shown) [Cpd 442, N-(4-(2-methyl-4-pyridinyl)phenyl)-2-(4′-(methylsulfonyl)-3-biphenylyl)propanamide], the IC50 is 628 nM.

`Cc1cc(-c2ccc(NC(=O)C(C)c3cccc(C4CC4)c3)cc2)ccn1` (stereo not shown) [Cpd 524, 2-(3-cyclopropylphenyl)-N-(4-(2-methyl-4-pyridinyl)phenyl)propanamide] displayed an IC50 of 1200 nM.

Molecule `Cc1cc(-c2ccc(NC(=O)[C@H](C)c3cccc(-c4ccc(C(=O)O)cc4)c3)cc2)ccn1` [Cpd 639] came in with an IC50 above 10000 nM.

The molecule `Cc1cc(-c2ccc(NC(=O)C(C)(C)c3cc(C(F)(F)F)cc(C(F)(F)F)c3)cc2)ccn1` [Cpd 336] displayed an IC50 above 10000 nM.

Consider `Cc1cc(-c2ccc(NC(=O)Cc3ccc(-c4ccccc4)cc3)cc2)ccn1` [Cpd 19, 2-(4-biphenylyl)-N-(4-(2-methyl-4-pyridinyl)phenyl)acetamide], for which the midpoint of inhibition, the IC50, lay at 557 nM.

The molecule `Cc1cc(-c2ccc(NC(=O)Cc3ccc(C)s3)cc2)ccn1` [Cpd 38, N-(4-(2-methyl-4-pyridinyl)phenyl)-2-(5-methyl-2-thiophenyl)acetamid] came in with an IC50 of 2370 nM.

In turn, `CC(=O)N1CCC(C(=O)Nc2ccc(-c3ccnc(C)c3)cc2)CC1` [Cpd 55] displayed an IC50 above 10000 nM.

With `COCCNc1cccc(C(CC(C)C)C(=O)Nc2ccc(-c3ccnc(C)c3)cc2)n1` (stereo not shown) [Cpd 182, 2-(6-((2-methoxyethyl)amino)-2-pyridinyl)-4-methyl-N-(4-(2-methyl-4-pyridinyl)-phenyl)pentanamide], the IC50 is above 10000 nM.

Molecule `CSc1cccc(C(C)C(=O)Nc2ccc(-c3ccnc(C)c3)cc2)c1` (stereo not shown) [Cpd 142, N-(4-(2-methyl-4-pyridinyl)phenyl)-2-(3-(methylsulfanyl)phenyl)propanamide] registered an IC50 of 1050 nM.

With `Cc1cc(-c2ccc(NC(=O)C(CC(C)C)C3CCOCC3)cc2)ccn1` (stereo not shown) [Cpd 173], the IC50 is above 10000 nM.

`COc1cccc(C(=O)Nc2ccc(-c3ccnc(C)c3)cc2)c1` [Cpd 34] came in with an IC50 of 2930 nM.

For the molecule `Cc1cc(-c2ccc(NC(=O)c3cc(Cl)cc(Cl)c3)c(F)c2)ccn1` [Cpd 86], the IC50 is above 10000 nM.

`Cc1cc(-c2ccc(NC(=O)[C@H](CC3CC3)c3cccc(Br)c3)cc2)ccn1` [Cpd 180, (2R)-2-(3-bromophenyl)-3-cyclopropyl-N-(4-(2-methyl-4-pyridinyl)phenyl)-propanamide] returned an IC50 of 367 nM.

`Cc1cc(-c2ccc(NC(=O)C(C)c3cccc(C4=CCNCC4)c3)cc2)ccn1` (stereo not shown) [Cpd 425, N-(4-(2-methyl-4-pyridinyl)phenyl)-2-(3-(1,2,3,6-tetrahydro-4-pyridinyl)phenyl)-propanamide] displayed an IC50 above 10000 nM.

On to `Cc1cc(-c2ccc(NC(=O)C3CC(=O)N(c4ccccc4)C3)cc2)ccn1` (stereo not shown) [Cpd 53], for which the IC50 was above 10000 nM.

`Cc1cc(-c2ccc(NC(=O)c3cccc4c3oc3ccccc34)cc2)ccn1` [Cpd 286]: the IC50 is 6710 nM.

The molecule `Cc1cc(-c2ccc(NC(=O)C(C)n3cnc(-c4ccccc4)c3)cc2)ccn1` (stereo not shown) [Cpd 151, N-(4-(2-methyl-4-pyridinyl)phenyl)-2-(4-phenyl-1H-imidazol-1-yl)propanamide] showed an IC50 of 582 nM.

For `Cc1cc(-c2ccc(NC(=O)C(C)c3cccc(N4CCN(C)CC4)c3)cc2)ccn1` (stereo not shown) [Cpd 138], the IC50 is above 10000 nM.

In turn, `Cc1cc(-c2ccc(NC(=O)Cc3ccc(F)c(C(F)(F)F)c3)cc2)ccn1` [Cpd 351, 2-(4-fluoro-3-(trifluoromethyl)phenyl)-N-(4-(2-methyl-4-pyridinyl)phenyl)acetamide] came in with an IC50 of 2390 nM.

`COC1CCCC(C(=O)Nc2ccc(-c3ccnc(C)c3)cc2)C1` (stereo not shown) [Cpd 35] showed an IC50 of 4280 nM.

As for `COc1cc(NC(=O)C(C)c2cc(F)cc(C(F)(F)F)c2)ccc1-c1ccnc(C)c1` (stereo not shown) [Cpd 454, 2-(3-fluoro-5-(trifluoromethyl)phenyl)-N-(3-methoxy-4-(2-methyl-4-pyridinyl)-phenyl)propanamide], the midpoint of inhibition, the IC50, lay at 806 nM.

The molecule `Cc1cc(-c2ccc(NC(=O)C(C)c3cccc(-c4ccsc4)c3)cc2)ccn1` (stereo not shown) [Cpd 174, N-(4-(2-methyl-4-pyridinyl)phenyl)-2-(3-(3-thiophenyl)phenyl)propanamide] had an IC50 of 1270 nM.

The molecule `Cc1cc(-c2ccc(NC(=O)C3CC(=O)N(C4CCCCC4)C3)cc2)ccn1` (stereo not shown) [Cpd 60] had an IC50 above 10000 nM.

For the molecule `Cc1cc(-c2ccc(NC(=O)C(CC(C)C)c3cccc(-c4ccc(N5CCN(C(=O)OC(C)(C)C)CC5)cc4)c3)cc2)ccn1` (stereo not shown) [Cpd 228, tert-butyl 4-(3′-(3-methyl-1-((4-(2-methyl-4-pyridinyl)phenyl)carbamoyl)butyl)-4-biphenylyl)-1-piperazinecarboxylate], the IC50 is 135 nM.

In turn, `COc1cc(C(=O)Nc2ccc(-c3ccnc(C)c3)cc2)ccc1C` [Cpd 282] had an IC50 above 10000 nM.

For the molecule `COc1cc(NC(=O)C(C)c2cccc(-c3ccc(N4CCOCC4)cc3)c2)ccc1-c1ccnc(C)c1` (stereo not shown) [Cpd 191], the IC50 turned out to be 179 nM.

Take `Cc1cc(-c2ccc(NC(=O)C(C)n3cc(-c4ccccc4)c(C)n3)cc2)ccn1` (stereo not shown) [Cpd 455, 2-(3-methyl-4-phenyl-1H-pyrazol-1-yl)-N-(4-(2-methyl-4-pyridinyl)phenyl)-propanamide]: the concentration for half-maximal inhibition (IC50) stood at 908 nM.

Molecule `Cc1cc(-c2ccc(NC(=O)Cc3cncc(Br)c3)cc2)ccn1` [Cpd 27, 2-(5-bromo-3-pyridinyl)-N-(4-(2-methyl-4-pyridinyl)phenyl)acetamide] had an IC50 of 2450 nM.

`Cc1cc(-c2ccc(NC(=O)C(CC(C)C)c3ccc(N4CCCCC4)cc3)cc2)ccn1` (stereo not shown) [Cpd 134, 4-methyl-N-(4-(2-methyl-4-pyridinyl)-phenyl)-2-(4-(1-piperidinyl)phenyl)-pentanamide] came in with an IC50 of 242 nM.

For the molecule `Cc1cc(-c2ccc(NC(=O)C(C)c3ccc4c(c3)CCN4)cc2)ccn1` (stereo not shown) [Cpd 497, 2-(2,3-dihydro-1H-indol-5-yl)-N-(4-(2-methyl-4-pyridinyl)phenyl)propanamide], the IC50 was above 10000 nM.

With `COc1ccc(Cl)cc1C(=O)Nc1ccc(-c2ccnc(C)c2)cc1` [Cpd 10], half-maximal inhibition (IC50) required 1380 nM.

For the molecule `Cc1cc(-c2ccc(NC(=O)C(C)c3cccc(-c4ccc(N5CCOCC5)nc4)c3)cc2)ccn1` (stereo not shown) [Cpd 135, N-(4-(2-methyl-4-pyridinyl)phenyl)-2-(3-(6-(4-morpholinyl)-3-pyridinyl)phenyl)-propanamide], the IC50 is 154 nM.

`Cc1cc(-c2ccc(NC(=O)[C@H]3CCCN3C(=O)OC(C)(C)C)cc2)ccn1` [Cpd 168] yielded an IC50 above 10000 nM.

Consider `Cc1cc(-c2ccc(NC(=O)C(CC3CCC3)c3cccc(Br)c3)cc2)ccn1` (stereo not shown) [Cpd 124, 2-(3-bromophenyl)-3-cyclobutyl-N-(4-(2-methyl-4-pyridinyl)phenyl)propanamide], for which the IC50 is 282 nM.

In the case of `Cc1cc(-c2ccc(NC(=O)C(C)c3ccc(N)cc3)cc2)ccn1` (stereo not shown) [Cpd 419, 2-(4-aminophenyl)-N-(4-(2-methyl-4-pyridinyl)phenyl)propanamide], the IC50 was above 10000 nM.

With `Cc1cc(-c2ccc(NC(=O)c3cccc(C(F)(F)F)c3)cc2)ccn1` [Cpd 279], the IC50 is above 10000 nM.

Take `COc1cc(NC(=O)C(C)c2cccc(Br)c2)ccc1-c1ccnc(C)c1` (stereo not shown) [Cpd 143]: the half-maximal inhibitory concentration (IC50) was found to be 485 nM.

As for `Cc1cc(-c2ccc(NC(=O)c3cc4ccc(F)cc4s3)cc2)ccn1` [Cpd 314], the IC50 was above 10000 nM.

As for `Cc1cc(-c2ccc(NC(=O)Cc3c(C)noc3C)cc2)ccn1` [Cpd 89, 2-(3,5-dimethyl-4-isoxazolyl)-N-(4-(2-methyl-4-pyridinyl)phenyl)acetamide], the IC50 was above 10000 nM.

The molecule `Cc1cc(-c2ccc(NC(=O)Cc3ccccn3)cc2)ccn1` [Cpd 88, N-(4-(2-methyl-4-pyridinyl)phenyl)-2-(2-pyridinyl)acetamide] had an IC50 above 10000 nM.

Molecule `Cc1cc(-c2ccc(NC(=O)C3CCN(Cc4ccccc4)CC3)cc2)ccn1` [Cpd 312] yielded an IC50 above 10000 nM.

With `Cc1cc(-c2ccc(NC(=O)c3ccccc3-c3ccccc3)cc2)ccn1` [Cpd 91], the IC50 was above 10000 nM.

Regarding `Cc1cc(-c2ccc(NC(=O)c3cc4ccccc4n3C)cc2)ccn1` [Cpd 305], half-maximal inhibition (IC50) was put at 5540 nM.

The record behind these values is patent US20110166132A1, “Gamma Secretase Modulators” (Amgen Inc., priority 2007, published 2011).
